According to US20240208992A1, “MACROCYCLES AS CFTR MODULATORS” (Idorsia Pharmaceuticals Ltd, priority 2021, published 2024):
pEC50: −log10 of the molar value.

Target: human F508del-CFTR (Homo sapiens, UniProt P13569, DEL508-508)
Assay: F508del-CFTR cell surface expression (corrector activity), DiscoveRx ß-galactosidase complementation chemiluminescence assay in recombinant U2OS cell line;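 note: U2OS cells co-expressing ProLink-tagged F508del-CFTR and a membrane-anchored enzyme acceptor, where more surface CFTR restores β-galactosidase activity measured by chemiluminescence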
Settings: U2OS cells, 16h compound incubation; for pEC50: EC50, F508del-CFTR cell surface expression, geomean of several measurements; for Emax: U2OS, in relation to the Emax of the corrector lumacaftor (=100%), arithmetic mean

human F508del-CFTR, sequence (P13569 with tags, fused parts or gaps DEL508-508): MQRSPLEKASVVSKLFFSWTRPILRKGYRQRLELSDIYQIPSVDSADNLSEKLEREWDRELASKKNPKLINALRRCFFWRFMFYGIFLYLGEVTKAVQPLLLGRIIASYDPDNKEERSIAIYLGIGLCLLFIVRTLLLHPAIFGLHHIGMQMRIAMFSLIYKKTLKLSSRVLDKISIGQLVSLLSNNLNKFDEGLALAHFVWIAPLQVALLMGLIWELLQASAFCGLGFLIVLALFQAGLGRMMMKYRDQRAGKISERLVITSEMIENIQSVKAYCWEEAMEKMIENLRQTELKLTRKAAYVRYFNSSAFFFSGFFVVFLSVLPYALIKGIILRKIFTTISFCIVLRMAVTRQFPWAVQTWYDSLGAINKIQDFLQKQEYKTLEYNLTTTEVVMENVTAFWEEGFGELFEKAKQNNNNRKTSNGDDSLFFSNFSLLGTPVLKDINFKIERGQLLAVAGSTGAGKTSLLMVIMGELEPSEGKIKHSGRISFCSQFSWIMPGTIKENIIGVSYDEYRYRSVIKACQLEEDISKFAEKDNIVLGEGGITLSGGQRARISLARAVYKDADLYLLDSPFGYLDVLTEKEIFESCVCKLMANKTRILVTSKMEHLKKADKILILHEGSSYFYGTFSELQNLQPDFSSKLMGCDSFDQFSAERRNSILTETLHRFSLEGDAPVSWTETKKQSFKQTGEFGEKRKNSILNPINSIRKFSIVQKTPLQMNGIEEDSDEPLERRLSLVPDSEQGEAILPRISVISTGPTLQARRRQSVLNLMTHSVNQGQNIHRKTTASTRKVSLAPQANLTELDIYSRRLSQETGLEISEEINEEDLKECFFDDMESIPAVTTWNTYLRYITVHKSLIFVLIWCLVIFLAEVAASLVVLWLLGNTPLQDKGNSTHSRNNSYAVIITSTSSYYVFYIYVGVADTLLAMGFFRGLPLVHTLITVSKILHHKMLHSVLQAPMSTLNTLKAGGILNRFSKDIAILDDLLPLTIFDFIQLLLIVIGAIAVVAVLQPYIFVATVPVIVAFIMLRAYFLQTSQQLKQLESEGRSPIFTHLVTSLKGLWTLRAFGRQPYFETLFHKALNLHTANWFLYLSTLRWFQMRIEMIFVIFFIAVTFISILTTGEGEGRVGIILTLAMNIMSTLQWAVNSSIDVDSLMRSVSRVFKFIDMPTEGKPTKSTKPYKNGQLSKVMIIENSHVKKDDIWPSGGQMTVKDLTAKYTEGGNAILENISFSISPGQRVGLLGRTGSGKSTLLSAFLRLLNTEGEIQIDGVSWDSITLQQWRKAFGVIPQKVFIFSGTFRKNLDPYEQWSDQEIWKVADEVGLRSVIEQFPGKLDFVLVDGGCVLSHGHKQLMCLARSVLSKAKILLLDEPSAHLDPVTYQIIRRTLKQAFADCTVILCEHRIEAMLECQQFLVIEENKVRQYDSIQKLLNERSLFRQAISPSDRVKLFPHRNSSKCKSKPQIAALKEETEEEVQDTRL

SMILES	pEC50	Emax [%]
COc1nc(C)cc2c1C(=O)N[C@H](C(=O)NCCc1cc(C)no1)CC(=O)N(C)[C@@H](CC(C)C)C(=O)N(C)[C@H](CCc1ccccc1)C(=O)N[C@H](Cc1ccccc1)CO2 [Example 874, (3R,6R,9S,13S)-3-benzyl-9-isobutyl-16-methoxy-7,10,18-trimethyl-N-(2-(3-methylisoxazol-5-yl)ethyl)-5,8,11,15-tetraoxo-6-phenethyl-2,3,4,5,6,7,8,9,10,11,12,13,14,15-tetradecahydropyrido[3,4-p][1]oxa[4,7,10,14]tetraazacycloheptadecine-13-carboxamide]	7.18	332
COc1cccc(CCNC(=O)[C@@H]2CC(=O)N(C)[C@@H](CC(C)C)C(=O)N(C)[C@H](CCc3ccccc3)C(=O)N[C@H](Cc3ccccc3)COc3cc(C)nc(OC)c3C(=O)N2)c1 [Example 875, (3R,6R,9S,13S)-3-benzyl-9-isobutyl-16-methoxy-N-(3-methoxyphenethyl)-7,10,18-trimethyl-5,8,11,15-tetraoxo-6-phenethyl-2,3,4,5,6,7,8,9,10,11,12,13,14,15-tetradecahydropyrido[3,4-p][1]oxa[4,7,10,14]tetraazacycloheptadecine-13-carboxamide]	7.68	333
COc1nc(C)cc2c1C(=O)N[C@H](C(=O)NCCc1cc(C)no1)CC(=O)N(C)[C@@H](CC(C)C)C(=O)N(C)[C@H](CC(C)(C)C)C(=O)N[C@H](Cc1ccccc1)CO2 [Example 876, (3R,6R,9S,13S)-3-benzyl-9-isobutyl-16-methoxy-7,10,18-trimethyl-N-(2-(3-methylisoxazol-5-yl)ethyl)-6-neopentyl-5,8,11,15-tetraoxo-2,3,4,5,6,7,8,9,10,11,12,13,14,15-tetradecahydropyrido[3,4-p][1]oxa[4,7,10,14]tetraazacycloheptadecine-13-carboxamide]	6.95	317
CCOCC[C@@H]1C(=O)N[C@H](Cc2ccccc2)COc2cc(C)nc(OC)c2C(=O)N[C@H](C(=O)NCCc2cc(OC)no2)CC(=O)N(C)[C@@H](CC(C)C)C(=O)N1C [Example 877, (3R,6R,9S,13S)-3-benzyl-6-(2-ethoxyethyl)-9-isobutyl-16-methoxy-N-(2-(3-methoxyisoxazol-5-yl)ethyl)-7,10,18-trimethyl-5,8,11,15-tetraoxo-2,3,4,5,6,7,8,9,10,11,12,13,14,15-tetradecahydropyrido[3,4-p][1]oxa[4,7,10,14]tetraazacycloheptadecine-13-carboxamide]	6.73	361
COc1cc(CCNC(=O)[C@@H]2CC(=O)N(C)[C@@H](CC(C)C)C(=O)N(C)[C@H](CC(C)(C)C)C(=O)N[C@H](Cc3ccccc3)COc3cc(C)nc(OC)c3C(=O)N2)on1 [Example 878, (3R,6R,9S,13S)-3-benzyl-9-isobutyl-16-methoxy-N-(2-(3-methoxyisoxazol-5-yl)ethyl)-7,10,18-trimethyl-6-neopentyl-5,8,11,15-tetraoxo-2,3,4,5,6,7,8,9,10,11,12,13,14,15-tetradecahydropyrido[3,4-p][1]oxa[4,7,10,14]tetraazacycloheptadecine-13-carboxamide]	7.57	336
COc1cc(C[C@@H]2C(=O)N[C@H](Cc3ccccc3)COc3ccc4ncc(F)cc4c3C(=O)N[C@H](C(=O)NCCc3noc(C4CC4)n3)CC(=O)N(C)[C@@H](CC(C)C)C(=O)N2C)on1 [Example 879, (3S,7S,10R,13R)-13-benzyl-N-(2-(5-cyclopropyl-1,2,4-oxadiazol-3-yl)ethyl)-20-fluoro-7-isobutyl-10-((3-methoxyisoxazol-5-yl)methyl)-6,9-dimethyl-1,5,8,11-tetraoxo-1,2,3,4,5,6,7,8,9,10,11,12,13,14-tetradecahydro-[1]oxa[4,7,10,14]tetraazacycloheptadecino[16,17-f]quinoline-3-carboxamide]	7.20	360
COc1cc(CCNC(=O)[C@@H]2CC(=O)N(C)[C@@H](CC(C)C)C(=O)N(C)[C@H](Cc3cc(OC)no3)C(=O)N[C@H](Cc3ccccc3)COc3ccc4ncc(F)cc4c3C(=O)N2)on1 [Example 880, (3S,7S,10R,13R)-13-benzyl-20-fluoro-7-isobutyl-N-(2-(3-methoxyisoxazol-5-yl)ethyl)-10-((3-methoxyisoxazol-5-yl)methyl)-6,9-dimethyl-1,5,8,11-tetraoxo-1,2,3,4,5,6,7,8,9,10,11,12,13,14-tetradecahydro-[1]oxa[4,7,10,14]tetraazacycloheptadecino[16,17-f]quinoline-3-carboxamide]	7.23	359
COc1nccc2c1C(=O)N[C@H](C(=O)NCCc1noc(C3CC3)n1)CC(=O)N(C)[C@@H](CC(C)C)C(=O)N(C)[C@H](CCc1nc(C(C)(C)C)no1)C(=O)N[C@H](Cc1ccccc1)CO2 [Example 881, (3R,6R,9S,13S)-3-benzyl-6-(2-(3-(tert-butyl)-1,2,4-oxadiazol-5-yl)ethyl)-N-(2-(5-cyclopropyl-1,2,4-oxadiazol-3-yl)ethyl)-9-isobutyl-16-methoxy-7,10-dimethyl-5,8,11,15-tetraoxo-2,3,4,5,6,7,8,9,10,11,12,13,14,15-tetradecahydropyrido[3,4-p][1]oxa[4,7,10,14]tetraazacycloheptadecine-13-carboxamide]	6.51	337
COc1nccc2c1C(=O)N[C@H](C(=O)NCCc1noc(C3CC3)n1)CC(=O)N(C)[C@@H](CC(C)C)C(=O)N(C)[C@H](Cn1cc(-c3ccccc3)nn1)C(=O)N[C@H](Cc1ccccc1)CO2 [Example 882, (3R,6R,9S,13S)-3-benzyl-N-(2-(5-cyclopropyl-1,2,4-oxadiazol-3-yl)ethyl)-9-isobutyl-16-methoxy-7,10-dimethyl-5,8,11,15-tetraoxo-6-((4-phenyl-1H-1,2,3-triazol-1-yl)methyl)-2,3,4,5,6,7,8,9,10,11,12,13,14,15-tetradecahydropyrido[3,4-p][1]oxa[4,7,10,14]tetraazacycloheptadecine-13-carboxamide]	6.33	367
COc1nccc2c1C(=O)N[C@H](C(=O)NCCc1noc(C3CC3)n1)CC(=O)N(C)[C@@H](CC(C)C)C(=O)N(C)[C@H](CCc1nc(C3CCCC3)no1)C(=O)N[C@H](Cc1ccccc1)CO2 [Example 883, (3R,6R,9S,13S)-3-benzyl-6-(2-(3-cyclopentyl-1,2,4-oxadiazol-5-yl)ethyl)-N-(2-(5-cyclopropyl-1,2,4-oxadiazol-3-yl)ethyl)-9-isobutyl-16-methoxy-7,10-dimethyl-5,8,11,15-tetraoxo-2,3,4,5,6,7,8,9,10,11,12,13,14,15-tetradecahydropyrido[3,4-p][1]oxa[4,7,10,14]tetraazacycloheptadecine-13-carboxamide]	6.95	344
COc1cc(CCNC(=O)[C@@H]2CC(=O)N(C)[C@@H](CC(C)C)C(=O)N(C)[C@H](CCc3nc(C4CCCC4)no3)C(=O)N[C@H](Cc3ccccc3)COc3ccnc(OC)c3C(=O)N2)on1 [Example 884, (3R,6R,9S,13S)-3-benzyl-6-(2-(3-cyclopentyl-1,2,4-oxadiazol-5-yl)ethyl)-9-isobutyl-16-methoxy-N-(2-(3-methoxyisoxazol-5-yl)ethyl)-7,10-dimethyl-5,8,11,15-tetraoxo-2,3,4,5,6,7,8,9,10,11,12,13,14,15-tetradecahydropyrido[3,4-p][1]oxa[4,7,10,14]tetraazacycloheptadecine-13-carboxamide]	7.02	385
